Reference: PubChem BioAssay AID652166 (The Scripps Research Institute Molecular Screening Center, 2013)
The source made the active and inactive calls. The rule behind the calls is not given here.

tested on: NOD2-RIPK2 signaling cell assay, absorbance 620 nm; assay: cellular NOD2-RIPK2 pathway inhibition potency – cell-based, absorbance 620 nm, late-stage follow-up (AID 652166)

IC50, inactive:
Cc1ncc([N+](=O)[O-])n1Cc1ccc(Cl)c(Cl)c1 > 10 µM
Cc1cc(S(=O)(=O)N2CCCCCC2)ccc1F > 10 µM
Cc1ccc(C(C[N+](=O)[O-])n2nc(C)cc2C)cc1 (stereo unspecified) > 10 µM
O=[N+]([O-])c1cc(S(=O)(=O)N2CCCCCC2)ccc1F > 10 µM
O=S(=O)(c1ccc(F)cc1)N1CCCCCC1 > 10 µM
COc1ccc(C(C[N+](=O)[O-])n2nc(C)cc2C)cc1 (stereo unspecified) > 10 µM
O=S(=O)(c1ccccc1)N1CCCCCC1 > 10 µM
Cc1nc([N+](=O)[O-])c(Br)n1Cc1ccccc1 > 10 µM
O=[N+]([O-])c1cccc(S(=O)(=O)N2CCCCCC2)c1 > 10 µM
Cc1ccc(S(=O)(=O)N2CCCCCC2)cc1[N+](=O)[O-] > 10 µM
Cc1nc([N+](=O)[O-])c(Br)n1Cc1ccc(Cl)c(Cl)c1 > 10 µM
